Bioavailability and IC50 data for one compound are collected here from patent US20090318492A1, “INDOLE COMPOUNDS HAVING C4-ACIDIC SUBSTITUENTS AND USE THEREOF AS PHOSPHOLIPASE-A2 INHIBITORS” (priority 2005, published 2009).

pIC50: −log10 of the molar value.

Series [1] is described as follows: Example 9 mouse pharmacokinetic study. It counts as in vivo. The following applies: serum, PO 30 mg/kg vs IV 3 mg/kg, male CD-1 mice. As for the experimental part: The plasma exposure of male CD-1 mice to indole and indole-related test articles (TAs) following intravenous (IV, 3 mg/kg) and oral (PO, 30 mg/kg) routes of administration was measured. This model was used to investigate the bioavailability of indole and indole-related TAs in mouse. Mice were selected for the study since they are an accepted species frequently used in pre-clinical evaluation of drugs intended for human use.
Male CD-1 mice (7-8 weeks old) were obtained from Charles River Laboratories (Wilmington, Mass.). Two groups (N=18 and 27) of male CD-1 mice were used for the study. Upon arrival, the animals were placed on Rodent Diet 5001 (Purina Mills, Inc., St. Louis, Mo.). […]
All animals were weighed on study day (1) and the body weights were recorded and used for dose calculation. […] Clinical observations were recorded as needed.
Analysis of serum samples was performed by LC/MS/MS (Waters Quattro Premier, Milford, Mass.). Areas under curves (AUC) were calculated using Graphpad Prism Version 4. Bioavailability was calculated using the following equation: […]
where AUC0-t=total area under curve at the last measurable time point Based on the serum levels analyzed by LC/MS/MS, the calculated bioavailability of indole and indole-related TAs in CD-1 mice is summarized in Table 4.3.

Series [2] has as its target T1, Porcine group 1B phospholipase A2 (pps PLA2) (Sus scrofa, UniProt P00592).
T1 construct: purchased
The series can be described thus: Example 8 fluorimetric PLA2 inhibition assay (PPyrPM), porcine enzyme. The class given is biochemical. An excerpt:
In this example, a fluorimetric assay procedure was used to evaluate the indole and indole-related compounds of the invention as inhibitors of group 1B phospholipase A2 (PLA2) from human, mouse and porcine. A description of this assay is found in articles: Leslie, C C and Gelb, M H (2004) Methods in Molecular Biology “Assaying phospholipase A2 activity”, 284:229-242; Singer, A G, et al. (2002) Journal of Biological Chemistry “Interfacial kinetic and binding properties of the complete set of human and mouse groups I, II, V, X, and XII secreted phospholipases A2”, 277:48535-48549, which are incorporated herein as references.
In general, this assay used a phosphatidylmethanol substrate with a pyrene fluorophore on the terminal end of the sn-2 fatty acyl chain. […] The effect of a given inhibitor and inhibitor concentration on human, mouse and porcine phospholipase was determined. […]
The following procedure was performed to evaluate the inhibitory potency of the evaluated compounds. • 1. […] The fluorescence was read using an excitation of 342 nm and an emission of 395 nm.
Evaluated compounds were tested in duplicate and their values were averaged to plot the inhibition curve and calculate the IC50. […] The IC50 was calculated using the BioDataFit 1.02 (Four Parameter Model) software package. […]

T1 sequence (P00592 23-146): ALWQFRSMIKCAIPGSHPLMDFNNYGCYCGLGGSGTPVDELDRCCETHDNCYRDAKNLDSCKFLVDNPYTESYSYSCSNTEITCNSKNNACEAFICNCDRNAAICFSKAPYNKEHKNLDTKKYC

In general, bioavailability refers to dose-corrected exposure relative to a reference, in per cent. The low end stands for little systemic uptake, the high end for much systemic uptake. As usually defined, the pIC50 is the negative decadic logarithm of the IC50, by convention in mol/L. In series [1], `Cc1c(C(=O)C(N)=O)c2c(OCC(=O)NS(=O)(=O)CCCC(=O)O)cccc2n1Cc1ccccc1` [ILY-IV-40, 4-[2-(3-Aminooxalyl-1-benzyl-2-methyl-1H-indol-4-yloxy)-acetylsulfamoyl]-butyric acid] yielded a bioavailability of 0.5%. Moreover, the pIC50 in series [2] was 6.00.
